From US7163923B2, “Peptide deformylase activated prodrugs” (Celmed Oncology (USA), Inc., priority 2001, dated 2007) come the findings set out here.

Data set [1] can be described thus: Stability in PBS, HEPES buffer and Mueller Hinton broth. Format: physicochemical. The protocol: (§1) Stability of PDF ECTA compounds was determined in different media: PBS, pH 7.4 (Gibco Life Technologies), 50 mM HEPES buffer (Sigma), pH 7.5, Mueller Hinton broth (Becton Dickinson), mouse and human plasma (Sigma). Dependence of a compound concentration on time was fit to an exponential equation c=co×exp(−k×t)} where c is the running concentration of the compound, co is its initial concentration and t is time. The compound half-life was determined as t1/2=0.693/k.

Data set [2] in a line: Stability in mouse plasma. The class given is in vitro ADME. The protocol: as §1
The nature of data set [3]: Stability in human plasma. The class given is in vitro ADME. As to the method:
as §1

The test system of another data set is E. coli. Nature of the data set: MIC susceptibility testing (NCCLS, 96-well). Format: cell-based. As to conditions: E. coli ATCC 25922, 18 hours at 35° C. The protocol:
(§2) The NCCLS (National Committee for Clinical Laboratory Standards) method was used to determine MIC's of antimicrobial compounds. All stocks of tested compounds were prepared in either water or DMSO based on the solubility. At the highest concentration of the tested compound DMSO content should not exceed 0.5%. Briefly 2-fold serial dilutions of test compounds from the highest concentration were made in a 96-well microtiter plate. Each well was inoculated with testing bacteria in broth to a final concentration of approximately 5×10^5 CFU/ml. Bacterial growth was monitored by the increase of optical density at 600 nm using a microplate reader (Tecan SpectraFluor Plus). The MIC was defined as the lowest concentration at which bacteria growth (equivalent to visible growth) was inhibited after 18 hours of incubation at 35° C.

Another data set relates to E. faecalis. The data set can be described thus: MIC susceptibility testing (NCCLS, 96-well). The class given is cell-based. As to conditions: E. faecalis ATCC 29212, 18 hours at 35° C. The protocol:
as §2

The subject of the next data set is P. aeruginosa. The data set can be described thus: MIC susceptibility testing (NCCLS, 96-well). The class given is cell-based. The conditions noted are these: P. aeruginosa ATCC 27853, 18 hours at 35° C. The protocol:
as §2

The test system of data set [4] is S. aureus. The data set can be described thus: MIC susceptibility testing (NCCLS, 96-well). The class given is cell-based. As to the method: as §2
The next data set concerns the target T1, purified PDF (Escherichia coli, UniProt P0A6K3).
T1 construct: made in house; host or cells: PDF-overexpressing E. coli
T1 sequence (P0A6K3 1-169): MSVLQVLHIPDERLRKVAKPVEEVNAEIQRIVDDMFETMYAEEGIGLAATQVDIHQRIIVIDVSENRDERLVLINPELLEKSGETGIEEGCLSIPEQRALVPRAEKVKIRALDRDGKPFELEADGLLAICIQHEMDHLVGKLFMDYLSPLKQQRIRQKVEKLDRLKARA
The data set can be described thus: Cell-free reaction catalyzed by purified PDF (HPLC, Michaelis-Menten). Format: biochemical, E. coli. As to conditions: different concentrations of actinonin, FIG. 5. As to the method: (§3) In a seperate experiment, cell-free reaction of PDF ECTA compounds has been studied using PDF purified from PDF-overexpressing E. coli following a procedure described in Ragusa S., et al. (2000) and Wei, et al. (2000b). NB3068 conversion was used as an example of a PDF ECTA reaction catalyzed by purified PDF. It was carried out in 50 mM HEPES buffer, pH 7.5 at room temperature. NB3068 concentrations were in the range of 2–250 μM, and the concentration of the enzyme in the reaction mixture was 25 nM. The conversion was monitored by direct injection of the reaction mixture onto an HPLC column (Adsorbosphere HS, C18, 5 μm, 4.6 mm×150 mm, Alltech). […] Kinetic parameters of the reaction were determined fitting the data to the Michaelis-Menten equation.
(§4) To confirm the role of PDF in catalyzing NB3068 transformation the rate of the reaction at different enzyme concentrations was determined (FIGS. 3 and 4). As can been seen the rate of the reaction is proportional to the enzyme concentration.

Data set [5] deals with S. aureus. Nature of the data set: MIC susceptibility testing (modified NCCLS, 384-well). The class given is cell-based. As to conditions: Staphylococcus aureus. The protocol: The NCCLS (National Committee for Clinical Laboratory Standards), method to determine MIC's of antimicrobial compounds is modified for high-throughput screening. All stocks of tested compounds are prepared in either water or in DMSO depending on solubility. At the highest concentration, DMSO content should not exceed 0.5%. Briefly, twenty 2-fold serial dilutions of test compounds from the highest concentration are made in a 384-well microtiter plate. Each well is inoculated with testing bacteria in broth to a final concentration of approximately 1–1.5×10^6 cells/ml. Bacterial growth is determined by the increase of optical density at 600 nm using a microplate reader (Tecan SpectraFluor Plus). The MIC is defined as the lowest concentration at which bacterial growth (equivalent to visible growth) was inhibited after 16 to 18 hours of incubation at the appropriate temperature required for the bacteria growth.
Using the assay provided above, the potency of NB2046 was compared to triclosan.

Substrate in data set [6]: CCn1cc(C(=O)O)c(=O)c2cc(F)c(N3CCN(C(=O)OCc4ccc(OC(=O)[C@H](CC(C)C)NC(=O)[C@H](CCSC)NC=O)cc4)CC3)cc21
Nature of the data set: Cell-free reaction catalyzed by purified PDF (HPLC, Michaelis-Menten). Format: biochemical, E. coli. As to conditions: other: PDF 25 nM, 50 mM HEPES pH 7.5, room temperature, substrate 2–250 μM. As to the method:
as §3, §4

[7] abbreviates: 50 mM HEPES buffer, pH 7.5, 6 hours.
The mark [8] stands for this setting: 50 mM HEPES buffer, pH 7.5, read-out: t1/2 HEPES.
The mark [9] stands for this setting: Mueller Hinton broth, read-out: t1/2 Broth.
Where [10] appears, read: PBS, pH 7.4, read-out: t1/2 PBS.
The mark [11] stands for this setting: S. aureus (MS) ATCC 29213, 18 hours at 35° C.

A word on the MIC: it is the lowest concentration found to suppress growth. Higher therefore signals a less susceptible organism. As a reminder, the Km is the concentration of substrate that gives half-maximal velocity. One may read the kcat as the number of substrate molecules converted per active site and unit of time at saturation. The kcat/Km is the turnover number divided by the Michaelis constant.

Values after ≈ are worked out from the molar mass of the structure shown.

As for `CCn1cc(C(=O)O)c(=O)c2cc(F)c(N3CCN(C(=O)OCc4ccc(OC(=O)[C@H](CC(C)C)NC(=O)[C@H](CCSC)NC=O)cc4)CC3)cc21` [NB3068, 1-Ethyl-6-fluoro-7-(4-{4-[2-(2-formylamino-4-methylsulfanyl-butyrylamino)-4-methyl-pentanoyloxy]-benzyloxycarbonyl}-piperazin-1yl)-4-oxo-1,4-dihydro-qiuinoline-3-carboxylic acid], the “percent of the compound remaining after 6 hours, HEPES” value in data set [1] (setting [7]) was “(70%)”. Moreover, the half-life is greater than 12 h in [1] (setting [8]); greater than 12 h in data set [1] (setting [9]); greater than 12 h in data set [1] (setting [10]); 36 s in data set [2] (read-out: t1/2 Mouse Plasma); 4.1 min in data set [3] (read-out: t1/2 Human Plasma). Also, the “percent of the compound remaining after 6 hours, Broth” value in data set [1] (Mueller Hinton broth, 6 hours) is “(70%)”. In addition, the “percent of the compound remaining after 6 hours, PBS” value in data set [1] (PBS, pH 7.4, 6 hours) is listed as “(75%)”. For the same molecule, the MIC against E. coli was less than 0.004 mg/L; in the data set with E. faecalis it was 2 mg/L (≈ 2.7 µM); in the data set on P. aeruginosa, 0.5 mg/L (≈ 0.674 µM); against S. aureus [4] (setting [11]), 2 mg/L (≈ 2.7 µM).

Consider `CSCC[C@H](NC=O)C(=O)N[C@@H](CC(C)C)C(=O)Oc1ccc(COC(=O)N(CCCl)CCCl)cc1` [NB3103, 2-(2-Formylamino-4-methylsulfanyl-butyrylamino)-4-methyl-pentanoic acid 4-{[bis-(2-chloro-ethyl)-carbamoyloxy]-methyl}-phenyl ester], for which the “percent of the compound remaining after 6 hours, HEPES” value in data set [1] (setting [7]) is on record as “(95%)”. In addition, the half-life in data set [1] (setting [8]) was greater than 12 h; in data set [1] (buffer, Mueller Hinton broth, read-out: t1/2 Broth) it was greater than 12 h; in data set [1] (buffer, PBS, pH 7.4, read-out: t1/2 PBS), greater than 12 h. The “percent of the compound remaining after 6 hours, Broth” value in data set [1] (Mueller Hinton broth, 6 hours) is “(95%)”. Besides, the “percent of the compound remaining after 6 hours, PBS” value in data set [1] (PBS, pH 7.4, 6 hours) is “(96%)”. In addition, the MIC in the data set with E. coli, against E. faecalis, against P. aeruginosa and against S. aureus [4] (setting [11]) was greater than 128 mg/L in each case.

In the case of “1-Cyclopropyl-6-fluoro-4-oxo-7-piperazin-1-yl-1,4-dihydro-quinoline-3-carboxylic acid 4-[2-(2-formylamino-4-methylsulfanyl-butyrylamino)-4-methyl-pentanoyloxy]-benzylester [NB3057]”, the “t1/2 Broth” value in [1] (buffer) amounted to 10 h. In addition, the “percent of the compound remaining after 6 hours, PBS” value in data set [1] (buffer, 6 h, pH 7.4) is “(82%)”. Further, the “t1/2 PBS” value in data set [1] (buffer, pH 7.4) was greater than 12 h. In addition, the “t1/2 HEPES” value in data set [1] (buffer, pH 7.5) was greater than 12 h. Moreover, in [2], the “t1/2 Mouse Plasma” value is recorded as 1.4 min. Moreover, the “t1/2 Human Plasma” value in data set [3] was less than 30 s. Further, the MIC in the data set on E. coli came to 0.0625 mg/L; in the data set with E. faecalis, 4 mg/L; in the data set with P. aeruginosa, 2 mg/L; against S. aureus [4] (S. aureus (MR) ATCC 33591, 18 hours at 35° C.), 0.5 mg/L; in the data set with S. aureus [4] (setting [11]), 0.125 mg/L.

`CCCCC[C@H](CC(=O)NO)C(=O)N[C@H](C(=O)N1CCC[C@H]1CO)C(C)C` [actinonin]: on purified PDF, the “Effect on NB3068 reaction catalyzed by purified PDF” value is “slows down the reaction in dose dependent manner”.

For the molecule `Oc1cc(Cl)ccc1Oc1ccc(Cl)cc1Cl` [Triclosan, reference compound], the minimum inhibitory concentration (MIC) against S. aureus [5] (ATCC 11632 / MSSA) was 0.00195 mg/L (≈ 0.00675 µM); against S. aureus [5] (ATCC 13301 / MSSA), 0.000488 mg/L (≈ 0.00169 µM); with S. aureus [5] (ATCC 14154 / MSSA), 0.00195 mg/L (≈ 0.00675 µM); against S. aureus [5] (ATCC 33591 / MSSA) it was 0.00781 mg/L (≈ 0.027 µM); with S. aureus [5] (ATCC 33592 / MSSA), 0.00391 mg/L (≈ 0.0135 µM); in the data set with S. aureus [5] (ATCC 33593 / MSSA), 0.000977 mg/L (≈ 0.00337 µM). For the same molecule, the minimal inhibitory concentration (MIC) was 0.00195 mg/L (≈ 0.00675 µM) in the data set with S. aureus [5] (ATCC 43300 / MSSA); 0.000244 mg/L (≈ 0.000843 µM) against S. aureus [5] (ATCC 700260 / MSSA); 0.00391 mg/L (≈ 0.0135 µM) in the data set with S. aureus [5] (ATCC 700698 / MSSA); no less than 4 mg/L against S. aureus [5] (ATCC 700699 / MSSA); 0.00195 mg/L (≈ 0.00675 µM) against S. aureus [5] (ATCC 700787 / MSSA); 0.0312 mg/L (≈ 0.108 µM) with S. aureus [5] (ATCC 700788 / MSSA). Further, in the data set with S. aureus [5] (ATCC 700789 / MSSA), the MIC stood at 0.0156 mg/L (≈ 0.054 µM).

As to `CSCC[C@H](NC=O)C(=O)N[C@@H](CC(C)C)C(=O)Oc1ccc(CSc2cccc[n+]2[O-])cc1` [NB3024], the “percent of the compound remaining after 6 hours, HEPES” value in data set [1] (setting [7]) is on record as “(88%)”. For the same molecule, the half-life in data set [1] (setting [8]), in data set [1] (setting [9]) and in data set [1] (setting [10]) was greater than 12 h each time. Also, the “percent of the compound remaining after 6 hours, Broth” value in data set [1] (Mueller Hinton broth, 6 hours) is recorded as “(82%)”. Moreover, in data set [1] (PBS, pH 7.4, 6 hours), the “percent of the compound remaining after 6 hours, PBS” value is recorded as “(81%)”. Also, the minimal inhibitory concentration (MIC) in the data set with E. coli was determined as 16 mg/L (≈ 31.6 µM); with E. faecalis it was 32 mg/L (≈ 63.3 µM); in the data set with P. aeruginosa, 128 mg/L (≈ 253 µM); in the data set with S. aureus [4] (setting [11]), 8 mg/L (≈ 15.8 µM).

B1: purified PDF (Escherichia coli K-12) (protein)
chain: MSVLQVLHIPDERLRKVAKPVEEVNAEIQRIVDDMFETMYAEEGIGLAATQVDIHQRIIVIDVSENRDERLVLINPELLEKSGETGIEEGCLSIPEQRALVPRAEKVKIRALDRDGKPFELEADGLLAICIQHEMDHLVGKLFMDYLSPLKQQRIRQKVEKLDRLKARA
notes: made in house; host or cells: PDF-overexpressing E. coli
For the molecule B1, in data set [6], the Km was 125 ± 17 µM, the kcat came to 2.07 ± 0.14 s⁻¹ and the catalytic efficiency (kcat/Km) was found to be 17000 M⁻¹ s⁻¹.
